Assay results as given in article PMC4441825 (Chemical research in toxicology, 2013).

Biological target: regulator of G-protein signaling 4 (RGS4) (Rattus norvegicus, UniProt P49799)
Assay: LC-ESI-MS of intact protein
Format: biochemical

Sequence of regulator of G-protein signaling 4 (RGS4) (P49799 52-205): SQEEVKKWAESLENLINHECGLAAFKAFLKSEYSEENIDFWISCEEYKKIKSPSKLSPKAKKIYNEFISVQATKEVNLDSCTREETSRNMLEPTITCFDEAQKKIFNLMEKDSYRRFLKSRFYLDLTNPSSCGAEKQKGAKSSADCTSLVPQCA
Sequence of regulator of G-protein signaling 4 (RGS4) (P63096 2-354 R178M/A326S partner): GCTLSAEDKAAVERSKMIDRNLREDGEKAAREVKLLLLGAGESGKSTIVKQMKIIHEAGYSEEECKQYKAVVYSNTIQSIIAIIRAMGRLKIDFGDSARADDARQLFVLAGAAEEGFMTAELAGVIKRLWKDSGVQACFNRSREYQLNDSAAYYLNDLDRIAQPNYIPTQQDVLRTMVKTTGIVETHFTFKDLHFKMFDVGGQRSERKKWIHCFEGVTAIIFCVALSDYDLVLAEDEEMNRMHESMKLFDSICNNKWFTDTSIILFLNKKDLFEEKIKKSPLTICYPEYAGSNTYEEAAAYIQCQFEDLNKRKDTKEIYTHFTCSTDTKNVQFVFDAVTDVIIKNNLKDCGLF

CCCCCC(O)C=CC=O (stereo not shown) [4HNE, 4-hydroxy-2-nonenal]
IC50: ~7.5 mM
